Experimental data reported in US20020004632A1 (priority 2000, published 2002).

Assays:
dendritic spines [1] = settings: low levels; cited from earlier work
dendritic spines [2] = settings: low levels; cited from earlier work; remark: listed apart in the source
[3] = tested on: Rat hippocampal CA1 neurons; assay: Spine morphology of transfected neurons in cultured hippocampal brain slices, 2PLSM imaging and automatic spine analysis algorithm; assay type: cell-based; settings: biollistic cotransfection with GFP; compared to the GFP control; at least 5 neurons per group
Description: Cultured hippocampal brain slices were prepared from 7 day old rats. After five days in vitro a small subset of neurons were biollistically transfected (for example, Lo, et al., (1994). Neuronal transfection in brain slices using particle-mediated gene transfer, Neuron 13, 1263-1268, the contents of which are hereby incorporated by reference) with a plasmid carrying the gene for enhanced green fluorescent protein (GFP) (commercially available from Clonetech) At least two days after transfection, slices were transferred to a perfusion chamber for imaging. Labeled neurons were identified and imaged using a custom-made 2PLSM laser scanning microscope (as described in Mainen, Z. F., Maletic-Savatic, M., Shi, S. H., Hayashi, Y., Malinow, R., and Svoboda, K. (1999), Two-photon imaging in living brain slices, Methods 18, 231-239, the contents of which are hereby incorporated by reference). The light source was a Ti:sapphire laser running at a wavelength of ≈990 nm (repetition frequency 80 MHz; pulse length 150 fs). The average power delivered to the backfocal plane of the objective (40x, NA 0.8) varied depending on the imaging depth (range 30 to 150 mW). Fluorescence was detected in whole-field detection mode with a photomultiplier tube.
mTOR kinase controls the phosphorylation of the translation regulators p70^56k and 4E-BP1. […]

Row | Compound | actin-based spine motility (dendritic spines [1]) | lesion-induced spine degeneration (dendritic spines [2]) | spine density [3]
1 | Cc1onc(O)c1CC(N)C(=O)O (stereo not drawn) [AMPA, alpha-amino-3-hydroxy-5-methyl-4-isoxalone] | abolished | block | –
2 | N[C@@H](CCC(=O)O)C(=O)O [glutamate] | abolished | – | –
3 | mTOR wt: wild-type mTOR kinase expressed from a plasmid transfected by biollistic gene transfer | – | – | increased
